Assay results reported in US9346761B2, “Arginine methyltransferase inhibitors and uses thereof” (Epizyme, Inc., priority 2013, dated 2016).

Tests used:
[1] = molecular target: T1, Full-length human PRMT1 isoform 1 (Homo sapiens, UniProt Q99873); assay: PRMT1 biochemical assay (3H-SAM Flashplate, peptide substrate)
T1 construct: GST-tagged PRMT1; made in house; host or cells: High Five insect cells (baculovirus, pFastBacI)
Outline: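 GST-tagged full-length PRMT1 from baculovirus-infected cells, preincubated 30 min at room temperature with compound in 20 mM Bicine pH 7.6, TCEP, BSG, Tween 20. Reaction started with 3H-SAM plus biotinylated peptide, stopped with 300 uM unlabelled SAM. Streptavidin Flashplate capture and scintillation counting; % inhibition curve-fitted for IC50.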

[2] = molecular target: T2, Full-length human PRMT8 (Homo sapiens, UniProt Q9NR22); assay: PRMT8 biochemical assay (3H-SAM Flashplate, peptide substrate)
T2 construct: Full-length human PRMT8 (NM_019854.4) isoform 1 transcript clone; made in house
T2 sequence (Q9NR22 whole entry, canonical isoform): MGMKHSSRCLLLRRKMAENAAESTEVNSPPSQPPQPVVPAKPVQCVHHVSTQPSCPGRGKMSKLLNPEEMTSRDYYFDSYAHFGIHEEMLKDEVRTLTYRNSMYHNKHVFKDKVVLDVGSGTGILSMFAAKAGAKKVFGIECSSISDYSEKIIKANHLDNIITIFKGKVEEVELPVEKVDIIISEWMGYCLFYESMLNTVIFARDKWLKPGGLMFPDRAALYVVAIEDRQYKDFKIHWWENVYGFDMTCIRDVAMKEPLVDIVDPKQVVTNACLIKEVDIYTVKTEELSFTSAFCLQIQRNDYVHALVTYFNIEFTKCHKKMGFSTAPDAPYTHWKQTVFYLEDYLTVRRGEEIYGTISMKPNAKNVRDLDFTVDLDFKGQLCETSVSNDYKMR
Outline: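 E. coli-expressed PRMT8, GST-cleaved, was preincubated with compound for 30 min at room temperature in 20 mM Bicine pH 7.6, 1 mM TCEP, 0.005% BSG, 0.002% Tween 20. ³H-SAM and biotinylated histone H4 31-45 peptide then started methylation.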

T1 sequence (Q99873 with tags, fused parts or gaps): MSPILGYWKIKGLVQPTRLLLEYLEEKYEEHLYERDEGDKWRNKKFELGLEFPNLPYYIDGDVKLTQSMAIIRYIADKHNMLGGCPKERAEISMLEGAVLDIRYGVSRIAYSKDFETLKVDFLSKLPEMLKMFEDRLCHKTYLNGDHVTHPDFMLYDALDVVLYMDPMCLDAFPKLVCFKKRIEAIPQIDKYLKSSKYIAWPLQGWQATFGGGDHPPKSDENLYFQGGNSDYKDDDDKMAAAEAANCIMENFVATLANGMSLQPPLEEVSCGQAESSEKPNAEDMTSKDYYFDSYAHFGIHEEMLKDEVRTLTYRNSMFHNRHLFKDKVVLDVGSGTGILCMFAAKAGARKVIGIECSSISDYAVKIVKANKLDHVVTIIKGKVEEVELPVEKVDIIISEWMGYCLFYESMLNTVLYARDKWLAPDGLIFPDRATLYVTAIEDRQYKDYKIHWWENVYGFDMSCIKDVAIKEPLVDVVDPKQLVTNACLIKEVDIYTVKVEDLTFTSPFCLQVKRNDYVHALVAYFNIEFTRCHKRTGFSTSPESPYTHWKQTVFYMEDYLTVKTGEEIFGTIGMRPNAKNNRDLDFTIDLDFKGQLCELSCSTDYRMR

CCN(C)C(=O)c1cccc(-c2n[nH]cc2CN(C)CCN)c1 [Compound 198]
IC50 [1]: 1010 to 3000 nM
IC50 [2]: > 10000 nM

Cc1cc(-c2n[nH]cc2CN(C)CCN)cc(C)c1OC(C)C [Compound 199, N^1-((3-(4-isopropoxy-3,5-dimethylphenyl)-1H-pyrazol-4-yl)methyl)-N^1-methylethane-1,2-diamine]
IC50 [1]: < 100 nM
IC50 [2]: 101 to 1000 nM

CN(CCN)Cc1c[nH]nc1-c1ccc(Oc2ccccc2)c(C#N)c1 [Compound 202]
IC50 [1]: < 100 nM
IC50 [2]: 101 to 1000 nM

CN(CCN)Cc1n[nH]cc1-c1ccc(Oc2ccccc2)cc1 [Compound 203]
IC50 [1]: < 100 nM
IC50 [2]: 101 to 1000 nM

CNCCN(C)Cc1n[nH]cc1-c1ccc(Oc2ccccc2)cc1 [Compound 204]
IC50 [1]: < 100 nM
IC50 [2]: < 100 nM

CN(CCN)Cc1c[nH]nc1-c1ccc(Oc2cccc(F)c2)cc1 [Compound 205]
IC50 [1]: < 100 nM
IC50 [2]: 101 to 1000 nM

CNCCN(C)Cc1cn(C)nc1-c1ccc(OC(C)C)c(Cl)c1 [Compound 206]
IC50 [1]: < 100 nM
IC50 [2]: 101 to 1000 nM

CNCCN(C)Cc1cn(C)nc1-c1ccc(Oc2ccccc2)cc1 [Compound 207]
IC50 [1]: < 100 nM
IC50 [2]: 101 to 1000 nM

CNCCN(C)Cc1cnn(C)c1-c1ccc(Oc2ccccc2)cc1 [Compound 208]
IC50 [1]: < 100 nM
IC50 [2]: 101 to 1000 nM

CNCCN(C)Cc1c[nH]nc1-c1ccc(OCCCOC)cc1 [Compound 209]
IC50 [1]: < 100 nM
IC50 [2]: 101 to 1000 nM

CNCCN(C)Cc1n[nH]cc1-c1ccc(OC(C)C)c(F)c1 [Compound 210]
IC50 [1]: < 100 nM
IC50 [2]: 101 to 1000 nM

CC(C)Oc1ccc(-c2c[nH]nc2CN(C)CCN)cc1Cl [Compound 211]
IC50 [1]: < 100 nM
IC50 [2]: 101 to 1000 nM

CNCCN(C)Cc1n[nH]cc1-c1ccc(OC(C)C)c(Cl)c1 [Compound 212]
IC50 [1]: < 100 nM
IC50 [2]: < 100 nM

CNCCN(C)Cc1c[nH]nc1-c1ccc(Oc2ccccc2)c(C#N)c1 [Compound 221]
IC50 [1]: < 100 nM
IC50 [2]: 101 to 1000 nM

CN(CCN)Cc1c(-c2ccc(C#N)cc2)ncn1C [Compound 222]
IC50 [1]: 1010 to 3000 nM
IC50 [2]: 3010 to 10000 nM

CN(CCN)Cc1c[nH]nc1-c1ccc(Oc2ccccc2)c(F)c1 [Compound 224, N^1-((3-(3-fluoro-4-phenoxyphenyl)-1H-pyrazol-4-yl)methyl)-N^1-methylethane-1,2-diamine]
IC50 [1]: < 100 nM
IC50 [2]: 101 to 1000 nM

CN(CCN)Cc1c[nH]nc1-c1ccc(Oc2ccc(F)cc2)cc1 [Compound 225, N^1-((3-(4-(4-fluorophenoxy)phenyl)-1H-pyrazol-4-yl)methyl)-N^1-methylethane-1,2-diamine]
IC50 [1]: < 100 nM
IC50 [2]: < 100 nM

CN(CCN)Cc1c[nH]nc1-c1ccc(Oc2ccccc2)c(C(=O)N(C)C)c1 [Compound 226]
IC50 [1]: < 100 nM
IC50 [2]: 3010 to 10000 nM

CNC(=O)c1cc(-c2n[nH]cc2CN(C)CCN)ccc1Oc1ccccc1 [Compound 227]
IC50 [1]: < 100 nM
IC50 [2]: 101 to 1000 nM

CNCCN(C)Cc1c[nH]nc1-c1ccc(OCCCOC)c(Cl)c1 [Compound 228]
IC50 [1]: < 100 nM
IC50 [2]: 101 to 1000 nM

CNCCN(C)Cc1cnn(CC(=O)OC)c1-c1ccc(OC(C)C)cc1 [Compound 249]
IC50 [1]: 101 to 1000 nM
IC50 [2]: 1010 to 3000 nM

CNCCN(C)Cc1cn(CC(=O)O)nc1-c1ccc(OC(C)C)cc1 [Compound 250]
IC50 [1]: 101 to 1000 nM
IC50 [2]: 1010 to 3000 nM

CNCCN(C)Cc1cn(C2CCCCC2)nc1-c1ccc(OC(C)C)cc1 [Compound 256]
IC50 [1]: 101 to 1000 nM
IC50 [2]: 1010 to 3000 nM
